The source of these data is PubChem BioAssay (NCI).

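1) Cells in 96-well plates. 2) Compound, 48 h, 5 concentrations. 3) Linear interpolation between surrounding doses. 4) Unreached endpoint = highest concentration. At the TGI there is no net growth.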

Common to all, as to assay: NCI anticancer screen, dose series, 48 h
Test [1] deals with HCC-2998 colon.
The test system of test [2] is HCT-15 colon.
Test [3] concerns MALME-3M melanoma.
Test [4] relates to MOLT-4 leukemia.
Test [5] deals with NCI-H522 lung.
Test [6] deals with OVCAR-4 ovarian.
For test [7], the system named is SK-MEL-2 melanoma.
Test [8] deals with SK-MEL-28 melanoma.
Test [9] has as its system SK-MEL-5 melanoma.
In test [10] the test system is SN12C renal.
The subject of test [11] is SW-620 colon.
Test [12] relates to UACC-257 melanoma.
Test [13] deals with HOP-62 NSCLC.

As for `O=C1CSC2(CC(/C=C/c3cccc([N+](=O)[O-])c3)=NN2c2cccc(S(=O)(=O)O)c2)N1c1nc2ccccc2s1` (stereo unspecified), the TGI in test [1] is > 100 µM; in test [2] it was 44.5 µM; in test [3], > 100 µM; in test [4], 64.9 µM; in test [5], 34.1 µM; in [6] it was 72.1 µM. The TGI is 47.9 µM in test [7]; > 100 µM in test [8]; > 100 µM in [9]; 49.9 µM in test [10]; 76.4 µM in test [11]; > 100 µM in [12].

For the compound `COc1ccc(OC)c(CNc2ccc(C(=O)O)cc2)c1`, the TGI in test [1], in [2], in test [3], in test [4], in test [5] and in test [6] was > 100 µM each time. Besides, the TGI in test [7], in [8], in test [9], in test [11] and in test [12] was > 100 µM throughout.

Turning to `COC(=O)c1cc2c(c3c1CC(Cc1ccccc1)C3=O)CCC2` (stereo unspecified), the TGI in test [1], in test [2], in test [13], in test [3], in test [4] and in test [5] was > 100 µM each time. The TGI in test [6], in [8], in test [9], in test [10], in test [11] and in [12] was > 100 µM throughout.

Consider `O=C(c1cccs1)N(C(=S)OCCOc1ccccc1)c1ccccc1`, for which the TGI in test [1] turned out to be 59.4 µM; in test [2], 84.7 µM; in test [13], 72.5 µM; in [3] it was 69.9 µM; in test [4], 67.9 µM; in [5], 45.1 µM. The TGI in test [6] turned out to be 86.7 µM; in test [7], 55.6 µM; in [8] it was 55.9 µM; in test [10], 55.5 µM; in test [11], 80 µM; in test [12] it was 69.9 µM.

With `CCOC(=O)NNC(=O)NCc1cccc(CNC(=O)NNC(=O)OCC)c1`, the TGI in test [1], in test [2], in [3], in test [4], in test [5] and in test [6] was > 100 µM each time. The TGI in test [7], in test [8], in [9], in [10], in [11] and in [12] was > 100 µM each time.

With `C=C1CC(c2ccc(OCCCN3C(=O)c4ccccc4C3=O)cc2)OC1=O` (stereo unspecified), the TGI in test [1] is 16.8 µM; in test [2] it was 6.84 µM; in test [13], 33.2 µM; in test [3] it was 7.27 µM; in test [4], 4.06 µM; in [5] it was 1.83 µM. Besides, the TGI in [7] stood at 4.98 µM; in test [8], 3.98 µM; in test [9] it was 20.4 µM; in test [10] it was 12.3 µM; in [11], 2.99 µM; in test [12] it was 7.55 µM.

For `Nc1ncnc2oc(C3OC(COC(=O)c4ccccc4)C(OC(=O)c4ccccc4)C3OC(=O)c3ccccc3)nc12` (stereo unspecified), the TGI in test [1], in [2], in test [13], in [3], in test [4] and in [5] was > 100 µM each time. Also, the TGI in test [6], in test [8], in test [9], in test [10], in test [11] and in test [12] was > 100 µM throughout.

As for `COC(=O)c1ccc2c(c1)S/C(=C/c1ccc3ccc4cccc5ccc1c3c45)S2`, the TGI is > 100 µM in [1]; > 100 µM in [2]; > 100 µM in [13]; > 100 µM in [3]; > 100 µM in [4]; 92.2 µM in test [5]. Besides, the TGI in test [6] was > 100 µM; in test [7] it was > 100 µM; in [9], > 100 µM; in test [10] it was > 100 µM; in [11] it was 76.8 µM; in test [12], > 100 µM.

On to `O=c1[nH]c(=S)nc2nc3c4ccc[nH]c4c4ccccc4c3nc12`, for which the TGI in test [1], in test [2], in test [13], in test [3], in [4] and in test [5] was > 100 µM throughout. Moreover, the TGI in test [6], in test [8], in test [9], in test [10], in test [11] and in [12] was > 100 µM each time.

Regarding `Oc1ccc2cc(Br)ccc2c1-c1c(O)ccc2ccc(Br)cc12`, the TGI in [1] was found to be 19.5 µM; in test [2] it was 29 µM; in test [13], 28.5 µM; in test [3], 26.6 µM; in test [4] it was 20.4 µM; in test [5], 29.9 µM. In addition, the TGI came to 31.4 µM in test [7]; 33.5 µM in test [8]; 37.5 µM in test [9]; 24.3 µM in test [10]; 24.2 µM in test [11]; 33.9 µM in test [12].

For the compound `O=C1C(Cl)C2(CC(/C=C/c3ccccc3)=NN2c2cccc(S(=O)(=O)O)c2)N1c1nc2ccccc2s1` (stereo unspecified), the TGI in test [1] was found to be 27.8 µM; in [2], 38.8 µM; in test [3] it was 33.3 µM; in test [4], 42.2 µM; in [5], 20.1 µM; in test [6], 31.9 µM. The TGI in [7] is 40.9 µM; in test [8], > 100 µM; in [9] it was 30.2 µM; in test [10] it was 36.1 µM; in test [11], 93.6 µM; in [12], 54.4 µM.
